Experimental data: the NIST ThermoML archive (doi:10.1016/j.jct.2012.07.022)
± gives the expanded uncertainty stated by the source.

Assay: wn = mass fraction of the nth substance listed
Settings: 101 kPa, Liquid; for viscosity: Capillary tube (Ostwald / Ubbelohde) method; for mass density: Vibrating tube method; for electrical conductivity: Alternating current cell with electrodes

Nc1[nH]cnc2ncnc1-2 [6-amino-1H-purine] + CC(=O)[O-].CCn1cc[n+](C)c1
viscosity (318.15 K, w2 = 0): 44.79 ± 1.8 mPa·s | viscosity (318.15 K, w2 = 0.0482): 60.64 ± 2.4 mPa·s | viscosity (318.15 K, w2 = 0.1008): 85.36 ± 3.5 mPa·s | viscosity (318.15 K, w2 = 0.1514): 116.8 ± 5 mPa·s | viscosity (318.15 K, w2 = 0.2055): 166 ± 7 mPa·s | viscosity (318.15 K, w2 = 0.2481): 220.1 ± 10 mPa·s | mass density (318.15 K, w2 = 0): 1085.3 ± 0.3 kg/m3 | mass density (318.15 K, w2 = 0.0482): 1098.8 ± 0.3 kg/m3 | mass density (318.15 K, w2 = 0.1008): 1111.9 ± 0.3 kg/m3 | mass density (318.15 K, w2 = 0.1514): 1122.4 ± 0.3 kg/m3 | mass density (318.15 K, w2 = 0.2055): 1133.5 ± 0.3 kg/m3 | mass density (318.15 K, w2 = 0.2481): 1141.6 ± 0.3 kg/m3 | electrical conductivity (323.15 K, w2 = 0): 0.986 ± 0.02 S/m | electrical conductivity (323.15 K, w2 = 0.0482): 0.695 ± 0.014 S/m | electrical conductivity (323.15 K, w2 = 0.1008): 0.546 ± 0.011 S/m | electrical conductivity (323.15 K, w2 = 0.1514): 0.431 ± 0.009 S/m | electrical conductivity (323.15 K, w2 = 0.2055): 0.336 ± 0.007 S/m | electrical conductivity (323.15 K, w2 = 0.2481): 0.267 ± 0.005 S/m | viscosity (323.15 K, w2 = 0): 36.23 ± 1.5 mPa·s | viscosity (323.15 K, w2 = 0.0482): 47.91 ± 1.9 mPa·s | viscosity (323.15 K, w2 = 0.1008): 65.78 ± 2.7 mPa·s | viscosity (323.15 K, w2 = 0.1514): 87.9 ± 3.6 mPa·s | viscosity (323.15 K, w2 = 0.2055): 121.4 ± 5.2 mPa·s | viscosity (323.15 K, w2 = 0.2481): 157.4 ± 7 mPa·s | mass density (323.15 K, w2 = 0): 1082.3 ± 0.3 kg/m3 | mass density (323.15 K, w2 = 0.0482): 1095.8 ± 0.3 kg/m3 | mass density (323.15 K, w2 = 0.1008): 1108.9 ± 0.3 kg/m3 | mass density (323.15 K, w2 = 0.1514): 1119.4 ± 0.3 kg/m3 | mass density (323.15 K, w2 = 0.2055): 1130.4 ± 0.3 kg/m3 | mass density (323.15 K, w2 = 0.2481): 1138.5 ± 0.3 kg/m3 | viscosity (328.15 K, w2 = 0): 29.78 ± 1.2 mPa·s | viscosity (328.15 K, w2 = 0.0482): 38.55 ± 1.6 mPa·s | viscosity (328.15 K, w2 = 0.1008): 51.75 ± 2.1 mPa·s | viscosity (328.15 K, w2 = 0.1514): 67.64 ± 2.8 mPa·s | viscosity (328.15 K, w2 = 0.2055): 91.14 ± 3.8 mPa·s | viscosity (328.15 K, w2 = 0.2481): 115.9 ± 4.9 mPa·s | mass density (328.15 K, w2 = 0): 1079.3 ± 0.3 kg/m3 | mass density (328.15 K, w2 = 0.0482): 1092.9 ± 0.3 kg/m3 | mass density (328.15 K, w2 = 0.1008): 1105.9 ± 0.3 kg/m3 | mass density (328.15 K, w2 = 0.1514): 1116.4 ± 0.3 kg/m3 | mass density (328.15 K, w2 = 0.2055): 1127.5 ± 0.3 kg/m3 | mass density (328.15 K, w2 = 0.2481): 1135.4 ± 0.3 kg/m3 | viscosity (333.15 K, w2 = 0): 24.82 ± 1 mPa·s | viscosity (333.15 K, w2 = 0.0482): 31.51 ± 1.3 mPa·s | viscosity (333.15 K, w2 = 0.1008): 41.48 ± 1.7 mPa·s | viscosity (333.15 K, w2 = 0.1514): 53.16 ± 2.1 mPa·s | viscosity (333.15 K, w2 = 0.2055): 70.05 ± 2.9 mPa·s | viscosity (333.15 K, w2 = 0.2481): 87.5 ± 3.6 mPa·s | mass density (333.15 K, w2 = 0): 1076.2 ± 0.3 kg/m3 | mass density (333.15 K, w2 = 0.0482): 1089.9 ± 0.3 kg/m3 | mass density (333.15 K, w2 = 0.1008): 1102.9 ± 0.3 kg/m3 | mass density (333.15 K, w2 = 0.1514): 1113.4 ± 0.3 kg/m3 | mass density (333.15 K, w2 = 0.2055): 1124.5 ± 0.3 kg/m3 | mass density (333.15 K, w2 = 0.2481): 1132.5 ± 0.3 kg/m3 | viscosity (338.15 K, w2 = 0): 20.95 ± 0.85 mPa·s | viscosity (338.15 K, w2 = 0.0482): 26.14 ± 1.1 mPa·s | viscosity (338.15 K, w2 = 0.1008): 33.78 ± 1.4 mPa·s | viscosity (338.15 K, w2 = 0.1514): 42.55 ± 1.7 mPa·s | viscosity (338.15 K, w2 = 0.2055): 54.95 ± 2.2 mPa·s | viscosity (338.15 K, w2 = 0.2481): 67.57 ± 2.8 mPa·s | mass density (338.15 K, w2 = 0): 1073.3 ± 0.3 kg/m3 | mass density (338.15 K, w2 = 0.0482): 1086.9 ± 0.3 kg/m3 | mass density (338.15 K, w2 = 0.1008): 1099.9 ± 0.3 kg/m3 | mass density (338.15 K, w2 = 0.1514): 1110.4 ± 0.3 kg/m3 | mass density (338.15 K, w2 = 0.2055): 1121.5 ± 0.3 kg/m3 | mass density (338.15 K, w2 = 0.2481): 1129.5 ± 0.3 kg/m3 | viscosity (343.15 K, w2 = 0): 17.88 ± 0.72 mPa·s | viscosity (343.15 K, w2 = 0.0482): 21.96 ± 0.89 mPa·s | viscosity (343.15 K, w2 = 0.1008): 27.91 ± 1.1 mPa·s | viscosity (343.15 K, w2 = 0.1514): 34.61 ± 1.4 mPa·s | viscosity (343.15 K, w2 = 0.2055): 43.91 ± 1.8 mPa·s | viscosity (343.15 K, w2 = 0.2481): 53.21 ± 2.1 mPa·s | mass density (343.15 K, w2 = 0): 1070.3 ± 0.3 kg/m3 | mass density (343.15 K, w2 = 0.0482): 1083.9 ± 0.3 kg/m3 | mass density (343.15 K, w2 = 0.1008): 1096.9 ± 0.3 kg/m3 | mass density (343.15 K, w2 = 0.1514): 1107.4 ± 0.3 kg/m3 | mass density (343.15 K, w2 = 0.2055): 1118.5 ± 0.3 kg/m3 | mass density (343.15 K, w2 = 0.2481): 1126.4 ± 0.3 kg/m3
